According to patent US20170044492A1, “CONVERSION OF SOMATIC CELLS INTO NOCICEPTORS, AND METHODS OF USE THEREOF” (CHILDERN'S MEDICAL CENTER CORPORATION, priority 2013, published 2017):
Values joined by “and” are separate entries in the source; they are usually repeats but may differ in a detail not shown here. Equal values may be shown once. Read-outs that look alike come from different tables or passages of the source.

Legend:
[1] = system: tdTomato-positive induced nociceptors; test: Calcium imaging of tdTomato-positive induced nociceptors with Trp channel agonists; assay type: cell-based, mouse
induced neurons = test: Extracellular multi-electrode array recording of induced neurons after agonist application; assay type: cell-based, mouse
[2] = system: tdTomato-positive primary DRG neurons; test: Calcium imaging of tdTomato-positive primary DRG neurons with Trp channel agonists; assay type: cell-based, mouse
induced nociceptors [3] = assay type: cell-based, mouse
[4] = molecular target: T1, P2X3 subtype of ionotropic purinergic receptors (Mus musculus, UniProt Q3UR32); test: Whole-cell patch clamp of P2X3 currents in induced nociceptors; assay type: cell-based; details: 30 μM
T1 construct: Whole-cell patch recordings were performed on induced tdTomato-positive nociceptors, derived from TrpV1-Cre^+/−::tdTomato^+/− MEFs; endogenous in cells; host or cells: tdTomato-positive induced nociceptors reprogrammed from TrpV1-Cre+/-::tdTomato+/- mouse embryonic fibroblasts
T1 sequence (Q3UR32 1-397): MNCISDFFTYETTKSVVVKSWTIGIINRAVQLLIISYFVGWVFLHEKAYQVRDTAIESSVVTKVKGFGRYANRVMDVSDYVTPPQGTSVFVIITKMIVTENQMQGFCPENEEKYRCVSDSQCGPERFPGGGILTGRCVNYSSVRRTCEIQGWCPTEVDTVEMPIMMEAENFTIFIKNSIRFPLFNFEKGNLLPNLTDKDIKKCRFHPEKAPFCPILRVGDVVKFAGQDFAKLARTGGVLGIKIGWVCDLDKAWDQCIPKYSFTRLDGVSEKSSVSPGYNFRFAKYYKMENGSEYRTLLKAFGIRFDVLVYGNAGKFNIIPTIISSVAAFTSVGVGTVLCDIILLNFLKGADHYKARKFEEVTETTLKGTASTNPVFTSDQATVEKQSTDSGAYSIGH

[5] = system: tdTomato-positive induced neurons; test: Whole-cell patch clamp of induced nociceptors; assay type: cell-based, mouse
primary DRGs = assay type: cell-based, mouse
induced nociceptors [6] = assay type: cell-based, mouse; remark: listed apart in the source
BAM-derived neurons = assay type: cell-based, mouse
[7] = system: KCl-responding neurons derived from the BAM factors; test: Calcium imaging of neurons derived from the BAM factors alone; assay type: cell-based, mouse
TrpV1 receptor = molecular target: T2, TrpV1 receptor (Mus musculus, UniProt Q704Y3); test: PGE2 sensitization of the capsaicin response, calcium imaging of induced nociceptors; assay type: cell-based
T2 construct: endogenous in cells; host or cells: tdTomato-positive induced nociceptors reprogrammed from TrpV1-Cre+/-::tdTomato+/- mouse embryonic fibroblasts

induced human neurons = test: Whole-cell patch clamp of induced human neurons; assay type: cell-based
[8] = induced nociceptors, capsaicin 1 μM, mustard oil 100 μM, menthol 250 μM, n=227 tdTomato-positive cells that responded to KCl
[9] = adult TrpV1::tdTomato mice, same procedure, n=249 tdTomato-positive cells that responded to KCl

T2 sequence (Q704Y3 whole entry): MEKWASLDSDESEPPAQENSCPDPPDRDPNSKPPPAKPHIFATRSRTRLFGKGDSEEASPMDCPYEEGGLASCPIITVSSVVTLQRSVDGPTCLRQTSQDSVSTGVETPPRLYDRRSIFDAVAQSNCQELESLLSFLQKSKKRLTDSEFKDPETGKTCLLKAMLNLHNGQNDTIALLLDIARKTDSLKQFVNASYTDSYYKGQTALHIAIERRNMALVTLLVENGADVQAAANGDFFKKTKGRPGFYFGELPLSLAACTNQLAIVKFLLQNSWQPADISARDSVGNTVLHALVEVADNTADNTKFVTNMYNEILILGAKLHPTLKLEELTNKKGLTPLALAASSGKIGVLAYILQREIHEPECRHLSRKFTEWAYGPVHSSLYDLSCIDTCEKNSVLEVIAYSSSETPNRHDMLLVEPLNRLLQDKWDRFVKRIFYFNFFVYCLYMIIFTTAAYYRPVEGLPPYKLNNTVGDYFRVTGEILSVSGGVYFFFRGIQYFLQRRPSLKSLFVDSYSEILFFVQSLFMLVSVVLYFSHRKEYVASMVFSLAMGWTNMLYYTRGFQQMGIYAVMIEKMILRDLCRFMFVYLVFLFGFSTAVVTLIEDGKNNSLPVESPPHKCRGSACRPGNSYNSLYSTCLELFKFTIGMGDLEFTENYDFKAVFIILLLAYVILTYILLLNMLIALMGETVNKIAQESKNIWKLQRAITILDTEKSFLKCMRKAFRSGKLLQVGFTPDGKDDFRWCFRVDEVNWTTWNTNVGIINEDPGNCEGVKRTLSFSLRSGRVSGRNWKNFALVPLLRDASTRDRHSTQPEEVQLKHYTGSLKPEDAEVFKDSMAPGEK

Compound: C=CCN=C=S [mustard oil]
- tdTomato-positive cells that responded to agonist [1]: 9%
- arrays with robust action potential firing after agonist application (arrays/total) (induced neurons): 3/3
- tdTomato-positive primary DRG neurons that responded to agonist [2]: 2.5%

Compound: O=C1[O][Pt]2([NH][C@@H]3CCCC[C@H]3[NH]2)[O]C1=O [oxaliplatin]
- sensitization of capsaicin response (spikes) (induced nociceptors [3]): marked sensitization

Compound: Nc1ncnc2c1ncn2[C@@H]1O[C@H](COP(=O)(O)CP(=O)(O)OP(=O)(O)O)[C@@H](O)[C@H]1O [α, β-methylene-ATP]
- neurons with rapidly-adapting inward currents elicited by agonist (neurons/total) [4]: 8/16

Compound: ZD7288
- neurons with ZD7288-sensitive HCN currents (neurons/total) [5]: 2/2

Compound: [Cl-].[K+] [KCl, potassium chloride]
- CGRP release from primary DRGs (primary DRGs): dose-dependent increase in CGRP release
- CGRP released, mean (s.e.m.) (induced nociceptors [6]): 390.4 (52.5) pg ml-1
- CGRP released, mean (s.e.m.) (BAM-derived neurons): 10.3 (2.6) pg ml-1

Compound: CC1CCC(C(C)C)C(O)C1 (stereo not drawn) [menthol]
- tdTomato-positive cells that responded to agonist [1, 8]: 3%
- tdTomato-positive primary DRG neurons that responded to agonist [2, 9]: 2.5%

Compound: COc1cc(CNC(=O)CCCC/C=C/C(C)C)ccc1O [capsaicin]
- tdTomato-positive cells that responded to agonist [1, 8]: 39%
- arrays with robust action potential firing after agonist application (arrays/total) (induced neurons; capsaicin 1 μM, mustard oil 100 μM): 3/3
- tdTomato-positive primary DRG neurons that responded to agonist [2, 9]: 36%
- KCl-responding neurons that responded to capsaicin (responders/total) [7]: 0/50
- neurons with inward currents elicited by capsaicin (neurons/total) ([5]; 1 μM capsaicin, voltage clamp, holding −80 mV): 6/11
- mean change in fluorescence absorption ratio, initial capsaicin response (TrpV1 receptor; 300 nM capsaicin, before PGE2): 0.028±3.0*10^−3

Compound: NC1=N[C@H](O)[C@H]2[C@H]3O[C@]4(O)O[C@@H]([C@@H](O)[C@@]2(N1)[C@@H]4O)[C@]3(O)CO [TTX, tetrodotoxin]
- neurons with TTX-resistant sodium currents (neurons/total) (induced human neurons): 10/10
- induced neurons firing single TTX-resistant action potentials overshooting 0 mV (neurons/total) [5]: 8/16 and 7/12
- induced neurons with TTX-resistant sodium currents greater than 50 pA (neurons/total) [5]: 14/15

Compound: CCCCC[C@H](O)/C=C/[C@H]1[C@H](O)CC(=O)[C@@H]1C/C=C\CCCC(=O)O [PGE2, Prostaglandin E2]
- mean change in fluorescence absorption ratio, PGE2-sensitized capsaicin response (TrpV1 receptor; second 300 nM capsaicin application after 1 μM PGE2 for two minutes, n=41): 0.18±6.0*10^−3
